# Measured values reported in patent publication US20250333388A1, “OXADIAZOLONE COMPOUNDS AND HERBICIDAL COMPOSITIONS AND USES THEREOF” (SHANDONG BINNONG TECHNOLOGY CO., LTD., priority 2023, published 2025).
# How the values were obtained:
# Type in all cases: in vivo
# rice = test: Safety testing on rice, stem and leaf spray in greenhouse; details: for inhibitory effect on rice (crop safety): at different doses, as compared to Control compounds A, B, and C, summary of Table 6; for Rice (%) safety (crop damage): stem and leaf spray
# Experimental: (§1) The seeds of corn and rice were sown into nutrient soil in plastic cups, respectively, then covered with soil, compacted, watered, and further cultivated in a greenhouse by conventional methods. The stems and leaves of the crops were sprayed when the crops reached the 2- to 3-leaf stage. The test compounds of the present application were dissolved in acetone, followed by addition of Tween 80. The solution was then diluted with a certain amount of water to a certain solubility, and sprayed onto the plants using a spray tower. The test was repeated three times. After drying naturally in the shade, the plants were put in a greenhouse and managed according to conventional methods. The growth and development of corn and rice were observed, and the safety of the test agent on corn and rice was checked visually periodically. A safety grading standard was represented by 0-100%, with “O” representing no damage to crops, and “100%” representing complete killing or severe inhibition of crops.
# corn = test: Safety testing on corn, stem and leaf spray in greenhouse; details: for inhibitory effect on corn (crop safety): at different doses, as compared to Control compounds A, B, and C, summary of Table 6; for Corn (%) safety (crop damage): stem and leaf spray
# Experimental: as §1
# barnyard grass = test: Test of herbicidal activity, post-seedling stem and leaf spray in greenhouse, barnyard grass; details: for herbicidal activity against barnyard grass compared with Control compounds A, B and C: at different doses, summary of Table 5; for Barnyard grass (%) control effect: post-seedling stem and leaf spray
# Experimental: (§2) Seeds of broadleaf weeds (abutilon, Solanum nigrum) or gramineous weeds (crabgrass, barnyard grass) were sown into nutrient soil in plastic cups, respectively, and then covered with soil, compacted, watered, and further cultivated in a greenhouse by conventional methods. The stems and leaves of the weeds were sprayed when the weeds reached the 2- to 3-leaf stage. The test compounds of the present application were dissolved in acetone respectively, followed by addition of Tween 80. The solution was diluted with a certain amount of water to a certain solubility, and then sprayed onto the plants using a spray tower. The test was repeated three times. After drying naturally in the shade, the plants were put in a greenhouse and managed according to conventional methods. The growth and development of weeds were observed, and the control effect of the test agent on weeds was checked visually periodically, which was expressed by 0-100%, with “0” representing no control effect, and “100%” representing complete killing or severe inhibition.
# abutilon = test: Test of herbicidal activity, post-seedling stem and leaf spray in greenhouse, abutilon; details: for herbicidal activity against abutilon compared with Control compounds A, B and C: at different doses, summary of Table 5; for Abutilon (%) control effect: post-seedling stem and leaf spray
# Experimental: as §2
# crabgrass = test: Test of herbicidal activity, post-seedling stem and leaf spray in greenhouse, crabgrass; details: for herbicidal activity against crabgrass compared with Control compounds A, B and C: at different doses, summary of Table 5; for Crabgrass (%) control effect: post-seedling stem and leaf spray
# Experimental: as §2
# Solanum nigrum = test: Test of herbicidal activity, post-seedling stem and leaf spray in greenhouse, Solanum nigrum; details: for herbicidal activity against Solamum nigrum compared with Control compounds A, B and C: at different doses, summary of Table 5; for Solanum nigrum (%) control effect: post-seedling stem and leaf spray
# Experimental: as §2
# [1] = dose 300 g a.i/ha, 0 = no damage to crops, 100% = complete killing or severe inhibition
# [2] = dose 300 g a.i/ha, 0 = no control effect, 100% = complete killing or severe inhibition
SMILES,"herbicidal activity against barnyard grass compared with Control compounds A, B and C (barnyard grass)",Barnyard grass (%) control effect (barnyard grass; dose 37.5 g a.i/ha) [%],Barnyard grass (%) control effect (barnyard grass; dose 75 g a.i/ha) [%],Barnyard grass (%) control effect (barnyard grass; dose 150 g a.i/ha) [%],Barnyard grass (%) control effect (barnyard grass; dose 300 g a.i/ha) [%],"herbicidal activity against abutilon compared with Control compounds A, B and C (abutilon)",Abutilon (%) control effect (abutilon; dose 37.5 g a.i/ha) [%],Abutilon (%) control effect (abutilon; dose 75 g a.i/ha) [%],Abutilon (%) control effect (abutilon; dose 150 g a.i/ha) [%],Abutilon (%) control effect (abutilon; [2]) [%],"herbicidal activity against crabgrass compared with Control compounds A, B and C (crabgrass)",Crabgrass (%) control effect (crabgrass; dose 37.5 g a.i/ha) [%],Crabgrass (%) control effect (crabgrass; dose 75 g a.i/ha) [%],Crabgrass (%) control effect (crabgrass; dose 150 g a.i/ha) [%],Crabgrass (%) control effect (crabgrass; dose 300 g a.i/ha) [%],"herbicidal activity against Solamum nigrum compared with Control compounds A, B and C (Solanum nigrum)",Solanum nigrum (%) control effect (Solanum nigrum; dose 37.5 g a.i/ha) [%],Solanum nigrum (%) control effect (Solanum nigrum; dose 75 g a.i/ha) [%],Solanum nigrum (%) control effect (Solanum nigrum; dose 150 g a.i/ha) [%],Solanum nigrum (%) control effect (Solanum nigrum; dose 300 g a.i/ha) [%],other results
CCS(=O)(=O)c1ccc(C(=O)C2C(=O)CCCC2=O)c(Cl)c1Cn1nc(C)oc1=O [Compound 6],–,–,–,–,–,–,–,–,–,–,–,–,–,–,–,–,–,–,–,–,inhibitory effect on rice (crop safety) (rice): no significant inhibitory effect; Rice (%) safety (crop damage) (rice; dose 37.5 g a.i/ha): 0%; Rice (%) safety (crop damage) (rice; dose 75 g a.i/ha): 0%; Rice (%) safety (crop damage) (rice; dose 150 g a.i/ha): 5%; Rice (%) safety (crop damage) (rice; dose 300 g a.i/ha): 10%; inhibitory effect on corn (crop safety) (corn): no significant inhibitory effect; Corn (%) safety (crop damage) (corn; dose 37.5 g a.i/ha): 0%; Corn (%) safety (crop damage) (corn; dose 75 g a.i/ha): 0%; Corn (%) safety (crop damage) (corn; dose 150 g a.i/ha): 0%; Corn (%) safety (crop damage) (corn; [1]): 5%
"Cc1nn(Cc2c(S(=O)(=O)C(C)C)ccc(C(=O)c3c(C)nn(C)c3O)c2Cl)c(=O)o1 [Compound 100, 1,3-dimethyl-4-{2-chloro-3-[(5-methyl-2-oxo-1,3,4-oxadiazol-3 (2H)yl)methyl]-4-isopropylsulfonylbenzoyl}-5-hydroxypyrazole]",–,–,–,–,–,–,–,–,–,–,–,–,–,–,–,–,–,–,–,–,inhibitory effect on rice (crop safety) (rice): no significant inhibitory effect; Rice (%) safety (crop damage) (rice; dose 37.5 g a.i/ha): 0%; Rice (%) safety (crop damage) (rice; dose 75 g a.i/ha): 0%; Rice (%) safety (crop damage) (rice; dose 150 g a.i/ha): 0%; Rice (%) safety (crop damage) (rice; dose 300 g a.i/ha): 2%; inhibitory effect on corn (crop safety) (corn): no significant inhibitory effect; Corn (%) safety (crop damage) (corn; dose 37.5 g a.i/ha): 0%; Corn (%) safety (crop damage) (corn; dose 75 g a.i/ha): 0%; Corn (%) safety (crop damage) (corn; dose 150 g a.i/ha): 0%; Corn (%) safety (crop damage) (corn; [1]): 0%
Cc1nn(Cc2c(S(C)(=O)=O)ccc(C(=O)c3c(C)nn(C)c3OC(=O)c3cnn(C)c3Cl)c2Cl)c(=O)o1 [Compound 218],better herbicidal activities,50,70,85,90,better herbicidal activities,55,80,90,95,better herbicidal activities,45,65,80,85,better herbicidal activities,50,70,90,95,–
Cc1nn(Cc2c(S(C)(=O)=O)ccc(C(=O)C3C(=O)CCCC3=O)c2Cl)c(=O)o1 [Compound 1],better herbicidal activities,55,80,90,98,better herbicidal activities,65,90,98,100,better herbicidal activities,50,75,85,95,better herbicidal activities,60,90,95,100,–
CCOC1=C(C(=O)c2ccc(S(C)(=O)=O)c(Cn3nc(C)oc3=O)c2Cl)C(=O)CCC1 [Compound 32],better herbicidal activities,55,80,90,95,better herbicidal activities,65,90,98,100,better herbicidal activities,50,75,85,90,better herbicidal activities,60,90,95,100,–
Cc1nn(Cc2c(S(C)(=O)=O)ccc(C(=O)c3c(C)nn(C)c3OC(=O)c3c(C(F)(F)F)nn(C)c3Cl)c2Cl)c(=O)o1 [Compound 204],better herbicidal activities,50,70,85,90,better herbicidal activities,55,80,90,98,better herbicidal activities,45,64,80,88,better herbicidal activities,52,70,90,97,–
Cc1nn(Cc2c(S(C)(=O)=O)ccc(C(=O)c3c(C)nn(C)c3OC(=O)c3cn(C)nc3C(F)(F)F)c2Cl)c(=O)o1 [Compound 166],better herbicidal activities,55,80,85,90,better herbicidal activities,65,88,92,95,better herbicidal activities,50,75,80,85,better herbicidal activities,60,85,90,93,–
